Experimental data reported in publication PMC4904262 (ACS Medicinal Chemistry Letters, 2016).

What was measured:
in vitro [1] = conditions: human, microsomes
in vitro [2] = conditions: mouse, microsomes
aldehyde oxidase [3] = molecular target: T1, aldehyde oxidase (Homo sapiens, UniProt Q06278); conditions: for % of parent compd remaining after 45 min: human, cytosol, 0.75 h, 1 µM
in vitro [4] = conditions: rat, microsomes
Caco-2 = conditions: human
WNT signaling = experiment: cells; conditions: 7dF3, read-out: 7dF3 IC50
aldehyde oxidase [5] = molecular target: T1, aldehyde oxidase; experiment: in vitro; conditions: cytosol
[6] = mouse

T1 sequence (Q06278 whole entry): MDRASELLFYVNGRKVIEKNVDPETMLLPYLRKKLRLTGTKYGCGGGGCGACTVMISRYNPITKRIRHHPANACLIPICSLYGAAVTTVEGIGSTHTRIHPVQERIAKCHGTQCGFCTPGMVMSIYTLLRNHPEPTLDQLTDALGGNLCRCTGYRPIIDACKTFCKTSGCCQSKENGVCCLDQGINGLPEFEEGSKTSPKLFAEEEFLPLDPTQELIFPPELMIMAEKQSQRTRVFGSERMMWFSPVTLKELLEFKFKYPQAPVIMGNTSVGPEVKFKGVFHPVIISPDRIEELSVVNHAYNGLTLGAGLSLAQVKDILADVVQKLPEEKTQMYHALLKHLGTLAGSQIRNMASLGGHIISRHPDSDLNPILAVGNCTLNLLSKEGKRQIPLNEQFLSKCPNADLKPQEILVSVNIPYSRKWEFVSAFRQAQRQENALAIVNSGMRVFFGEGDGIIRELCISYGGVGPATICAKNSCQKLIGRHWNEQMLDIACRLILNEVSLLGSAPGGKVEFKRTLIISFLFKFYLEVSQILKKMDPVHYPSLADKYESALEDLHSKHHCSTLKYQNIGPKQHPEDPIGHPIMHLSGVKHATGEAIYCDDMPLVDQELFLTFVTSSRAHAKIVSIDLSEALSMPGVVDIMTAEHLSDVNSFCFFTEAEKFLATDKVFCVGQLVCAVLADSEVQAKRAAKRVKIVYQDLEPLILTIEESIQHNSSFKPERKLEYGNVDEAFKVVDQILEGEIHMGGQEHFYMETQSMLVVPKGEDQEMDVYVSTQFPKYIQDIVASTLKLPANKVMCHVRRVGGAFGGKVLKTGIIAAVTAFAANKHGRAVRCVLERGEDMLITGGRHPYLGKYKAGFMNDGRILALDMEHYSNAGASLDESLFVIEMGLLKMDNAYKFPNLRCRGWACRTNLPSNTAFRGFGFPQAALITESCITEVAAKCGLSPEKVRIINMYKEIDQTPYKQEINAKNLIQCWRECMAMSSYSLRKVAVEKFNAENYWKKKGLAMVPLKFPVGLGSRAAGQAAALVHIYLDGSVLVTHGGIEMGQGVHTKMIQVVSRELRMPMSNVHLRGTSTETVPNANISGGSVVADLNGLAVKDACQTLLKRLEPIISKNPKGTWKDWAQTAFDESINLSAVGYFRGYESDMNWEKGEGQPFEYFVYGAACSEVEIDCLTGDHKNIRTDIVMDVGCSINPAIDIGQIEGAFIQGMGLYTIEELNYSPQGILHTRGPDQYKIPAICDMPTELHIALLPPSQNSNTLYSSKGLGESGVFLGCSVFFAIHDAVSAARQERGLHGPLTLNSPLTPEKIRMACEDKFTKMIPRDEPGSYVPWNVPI

Compound	microsomal CLint at 1 µM (in vitro [1]) [µL/min/mg]	microsomal CLint at 1 µM (in vitro [2]) [µL/min/mg]	microsomal CLint at 1 µM (in vitro [4]) [µL/min/mg]	% of parent compd remaining after 45 min (aldehyde oxidase [3]) [%]	further results
COC1CN(C(=O)c2ccc3cncc(-c4ccc(-c5cnn(C)c5)cc4)c3c2)C1 [Compound 29]	56	403	337	1	AO substrate (Enzyme assay) (aldehyde oxidase [3]): Yes
CC(C)(O)Cn1cc(-c2ccc(-c3cncc4ccc(C(N)=O)cc34)cc2)cn1 [Compound 42]				7	IC50 (WNT signaling): 0.6 ± 0.2 nM
Cn1cc(-c2ccc(-c3cncc4ccc(C(=O)N5CC(F)(F)C5)nc34)cc2)cn1 [Compound 14]	111	160	317		
CNC(=O)c1ccc2cncc(-c3ccc4cnn(C)c4c3)c2n1 [Compound 6]	32	333	178		
Cn1cc(-c2ccc(-c3cncc4ccc(-c5ncco5)nc34)cc2)cn1 [Compound 25]	48	200	796	0	CLint scaled at 1 µM (aldehyde oxidase [5]): 367 mL/min/kg
COC1CN(C(=O)c2ccc3cncc(-c4ccc5c(cnn5CC(C)(C)O)c4)c3n2)C1 [Compound 39]				0	IC50 (WNT signaling): 225 ± 76 nM
Cn1cc(-c2ccc(-c3cncc4ccc(N5CCNC5=O)nc34)cc2)cn1 [Compound 20]	64	246	323		
Cn1cc(-c2ccc(-c3cncc4ccc(C(=O)NC5CC5)cc34)cc2)cn1 [Compound 28]	31	141	98		AO substrate (Enzyme assay) (aldehyde oxidase [3]): Yes
COC1CN(C(=O)c2ccc3cncc(-c4ccc(-c5cnn(CC(C)(C)O)c5)cc4)c3n2)C1 [Compound 38]				0	IC50 (WNT signaling): 2.8 ± 0.7 nM
Cn1cc(-c2ccc(-c3cncc4ccc(-c5nccn5C)nc34)cc2)cn1 [Compound 26]	335	661			CLint scaled at 1 µM (aldehyde oxidase [5]): > 1000 mL/min/kg; AO substrate (Enzyme assay) (aldehyde oxidase [3]): Yes; microsomal CLint (in vitro [4]): > 1000 µL/min/mg
Cn1cc(-c2ccc(-c3cncc4ccc(-c5ccnn5C)nc34)cc2)cn1 [Compound 23]	144	310	761		
Cn1cc(-c2ccc(-c3cncc4ccc(-c5ccn(C)n5)nc34)cc2)cn1 [Compound 24]	45	299	212		
COC1CN(C(=O)c2ccc3cncc(-c4ccc5nn(CC(C)(C)O)cc5c4)c3n2)C1 [Compound 40]				0	IC50 (WNT signaling): 17.9 ± 5.5 nM
Cn1cc(-c2ccc(-c3cncc4ccc(C(=O)N5CCOCC5)nc34)cc2)cn1 [Compound 16]	41	83	23		
Cn1cc(-c2ccc(-c3cncc4ccc(C(=O)N5CCC5)nc34)cc2)cn1 [Compound 12]	38	143	85		
Cn1cc(-c2ccc(-c3cncc4ccc(C(=O)N5CCNCC5)nc34)cc2)cn1 [Compound 17]	36	15	525		Vss ([6]; Balb/C, in vivo): 5.8 L/kg; in vivo clearance [6]: exceeded liver blood flow
Cn1cc(-c2ccc(-c3cnc(N)c4ccc(C(=O)N5CCOCC5)nc34)cc2)cn1 [Compound 50]					Caco-2 ER (Caco-2): 9; Caco-2 PappA-B (Caco-2): 34.0 × 10^–6 cm/s
CNC(=O)c1ccc2c(N)ncc(-c3ccc4c(c3)CS(=O)(=O)N4)c2n1 [Compound 37]				100	IC50 (WNT signaling): 9600 ± 2430 nM
CNC(=O)c1ccc2c(OC)ncc(-c3ccc4c(c3)CS(=O)(=O)N4)c2n1 [Compound 45]					IC50 (WNT signaling): > 30000 nM
COC1CN(C(=O)c2ccc3cncc(-c4ccc(-c5cnn(CC(C)(C)O)c5)cc4)c3c2)C1 [Compound 41]				0	IC50 (WNT signaling): 13.2 ± 15.2 nM
COC1CN(C(=O)c2ccc3cncc(-c4ccc5nn(CC(C)(C)O)cc5c4)c3c2)C1 [Compound 44]				0	IC50 (WNT signaling): 92.7 ± 41.1 nM
Cn1cc(-c2ccc(-c3cncc4ccc(C(=O)N5CC(F)(F)C5)cc34)cc2)cn1 [Compound 30]	470	321	207	0	
COC1CN(C(=O)c2ccc3cncc(-c4ccc5c(cnn5CC(C)(C)O)c4)c3c2)C1 [Compound 43]				2	IC50 (WNT signaling): 921 ± 148 nM
Cn1cc(-c2ccc(-c3cncc4ccc(C(N)=O)nc34)cc2)cn1 [Compound 9]	34	155			
CNC(=O)c1ccc2cncc(-c3ccc(-c4cnn(C)c4)cc3)c2c1 [Compound 27]	27	275		0	
COC1CN(C(=O)c2ccc3cncc(-c4ccc(-c5cnn(C)c5)cc4)c3n2)C1 [Compound 13]	35	95	327	0	AO substrate (Enzyme assay) (aldehyde oxidase [3]): Yes
Cn1cc(-c2ccc(-c3cncc4ccc(C(=O)N5CCCC5)nc34)cc2)cn1 [Compound 15]	38	321	55		
CNC(=O)c1ccc2cncc(-c3ccc(-c4cnn(C)c4)cc3)c2n1 [Compound 4]	40	172			microsomal CLint (in vitro [4]): > 1000 µL/min/mg
CNC(=O)c1ccc2cncc(-c3ccc4c(cnn4C)c3)c2n1 [Compound 5]	116	444	699		

Continued, in another order:

microsomal CLint at 1 µM (in vitro [1]) [µL/min/mg]	microsomal CLint at 1 µM (in vitro [2]) [µL/min/mg]	microsomal CLint at 1 µM (in vitro [4]) [µL/min/mg]	Compound	% of parent compd remaining after 45 min (aldehyde oxidase [3]) [%]	further results
64	26	17	COC1(C)CN(C(=O)c2ccc3c(N)ncc(-c4ccc(-c5cnn(C)c5)cc4)c3c2)C1 [Compound 60]		Caco-2 ER (Caco-2): 7.2; Caco-2 PappA-B (Caco-2): 25.2 × 10^–6 cm/s
66	380	102	Cn1cc(-c2ccc(-c3cncc4ccc(N5CCOC5=O)cc34)cc2)cn1 [Compound 34]		AO substrate (Enzyme assay) (aldehyde oxidase [3]): Yes
20	125	24	Cn1cc(-c2ccc(-c3cnc(N)c4ccc(C(=O)N5CC(C)(F)C5)nc34)cc2)cn1 [Compound 55]		Caco-2 ER (Caco-2): 3.4; Caco-2 PappA-B (Caco-2): 27.6 × 10^–6 cm/s
26	200	90	CC(=O)Nc1ccc2cncc(-c3ccc(-c4cnn(C)c4)cc3)c2c1 [Compound 31]		AO substrate (Enzyme assay) (aldehyde oxidase [3]): Yes
76	43	28	Cn1cc(-c2ccc(-c3cnc(N)c4ccc(C(=O)N5CC(C)(F)C5)cc34)cc2)cn1 [Compound 62]		Caco-2 ER (Caco-2): 3.4; Caco-2 PappA-B (Caco-2): 25.8 × 10^–6 cm/s
16	39	22	Cn1cc(-c2ccc(-c3cnc(N)c4ccc(C(=O)NC5CC5)cc34)cc2)cn1 [Compound 64]		AO substrate (Enzyme assay) (aldehyde oxidase [3]): No; Caco-2 ER (Caco-2): 13.2; Caco-2 PappA-B (Caco-2): 32.5 × 10^–6 cm/s
	23	11	Cn1cc(-c2ccc(-c3cnc(N)c4ccc(C(=O)N5CCC5)cc34)cc2)cn1 [Compound 58]		microsomal CLint (in vitro [1]): < 10 µL/min/mg; Caco-2 ER (Caco-2): 5.5; Caco-2 PappA-B (Caco-2): 27.2 × 10^–6 cm/s
30	81	63	Cn1cc(-c2ccc(-c3cnc(N)c4ccc(C(=O)N5CCCC5)nc34)cc2)cn1 [Compound 56]		Caco-2 ER (Caco-2): 5.0; Caco-2 PappA-B (Caco-2): 30 × 10^–6 cm/s
25	107	19	Cn1cc(-c2ccc(-c3cnc(N)c4ccc(C(=O)N5CC(F)(F)C5)nc34)cc2)cn1 [Compound 54]		Caco-2 ER (Caco-2): 1.8; Caco-2 PappA-B (Caco-2): 23.9 × 10^–6 cm/s
398	570	307	Cn1cc(-c2ccc(-c3cncc4ccc(-c5nccn5C)cc34)cc2)cn1 [Compound 33]		
	48		COC1(C)CN(C(=O)c2ccc3c(N)ncc(-c4ccc(-c5cnn(C)c5)cc4)c3n2)C1 [Compound 53]		microsomal CLint (in vitro [1]): 25 µL/min/mg; microsomal CLint (in vitro [4]): 25 µL/min/mg; Caco-2 ER (Caco-2): 5.8; Caco-2 PappA-B (Caco-2): 40.1 × 10^–6 cm/s
123	78	17	Cn1cc(-c2ccc(-c3cnc(N)c4ccc(C(=O)N5CC(F)(F)C5)cc34)cc2)cn1 [Compound 61]		Caco-2 ER (Caco-2): 3.8; Caco-2 PappA-B (Caco-2): 39.7 × 10^–6 cm/s
24	61	38	Cn1cc(-c2ccc(-c3cnc(N)c4ccc(C(=O)N5CCC5)nc34)cc2)cn1 [Compound 52]		Caco-2 ER (Caco-2): 5.3; Caco-2 PappA-B (Caco-2): 42.6 × 10^–6 cm/s
14	66	19	Cn1cc(-c2ccc(-c3cnc(N)c4ccc(N5CCOC5=O)cc34)cc2)cn1 [Compound 65]		AO substrate (Enzyme assay) (aldehyde oxidase [3]): No; Caco-2 ER (Caco-2): 16.2; Caco-2 PappA-B (Caco-2): 20.6 × 10^–6 cm/s
81	129	96	Cn1cc(-c2ccc(-c3cncc4ccc(-c5ncco5)cc34)cc2)cn1 [Compound 32]	3	
